Reference: patent US6262051A, “Fungicidal methoximinomethyldioxazines” (Bayer Aktiengesellschaft, priority 1997, dated 2001)

Tested on: not listed separately
Test: HPLC logP
Format: physicochemical
Conditions: not given

chromatographic logP | SMILES
2 | CON=C(C1=NOCCO1)c1ccccc1Oc1nccc(Cl)n1 [II-1, [2-(4-chloro-pyrimidin-2-yloxy)-phenyl]-(5,6-dihydro-[1,4,2]dioxazin-3-yl)-methanone O-methyl oxime]
2.2 | CON=C(C1=NOCCO1)c1ccccc1Oc1nccc(OC(CF)CF)n1 [Example 1, (5,6-dihydro-[1,4,2]dioxazin-3-yl)-{2-[4-(2-fluoro-1-fluoromethyl-ethoxy)-pyrimidin-2-yloxy]-phenyl}-methanone O-methyl oxime]

Same assay, conditions: Table 1

SMILES | chromatographic logP
CCCCCCCCOc1ccnc(Oc2ccccc2C(=NOC)C2=NOCCO2)n1 [Example 23] | 4.7
CON=C(C1=NOCCO1)c1ccccc1Oc1nccc(N(C)Cc2ccccc2)n1 [Example 152] | 1.84
CON=C(C1=NOCCO1)c1ccccc1Oc1nccc(OCC(F)(F)C(F)F)n1 [Example 157] | 2.6
CON=C(C1=NOCCO1)c1ccccc1Oc1nccc(OC2CCCCC2)n1 [Example 27] | 3.3
C=CC(C)Oc1ccnc(Oc2ccccc2C(=NOC)C2=NOCCO2)n1 (stereo not drawn) [Example 164] | 2.7
CCCCCCCCCCCCCCCCOc1ccnc(Oc2ccccc2C(=NOC)C2=NOCCO2)n1 [Example 163] | > 7.4
CON=C(C1=NOCCO1)c1ccccc1Oc1nccc(SC)n1 [Example 108] | 2.2
CCCCCCCCCOc1ccnc(Oc2ccccc2C(=NOC)C2=NOCCO2)n1 [Example 35] | 5.1
CON=C(C1=NOCCO1)c1ccccc1Oc1nccc(OC(C(F)(F)F)C(F)(F)F)n1 [Example 42] | 3.3
CON=C(C1=NOCCO1)c1ccccc1Oc1nccc(OC2CCCC2)n1 [Example 54] | 3
CON=C(C1=NOCCO1)c1ccccc1Oc1nccc(NCc2ccccc2)n1 [Example 136] | 1.6
CON=C(C1=NOCCO1)c1ccccc1Oc1nccc(OCCC(F)(F)F)n1 [Example 158] | 2.6
CON=C(C1=NOCCO1)c1ccccc1Oc1nccc(OCC2C(C=C(C)C)C2(C)C)n1 (stereo not drawn) [Example 162] | 4.3
CON=C(C1=NOCCO1)c1ccccc1Oc1nccc(SCc2ccccc2)n1 [Example 120] | 3.14
CON=C(C1=NOCCO1)c1ccccc1Oc1nccc(NC(C)c2ccccc2)n1 (stereo not drawn) [Example 171] | 1.8
CON=C(C1=NOCCO1)c1ccccc1Oc1nccc(NCCc2ccccc2)n1 [Example 139] | 2.4
CCCCCCCCCCOc1ccnc(Oc2ccccc2C(=NOC)C2=NOCCO2)n1 [Example 36] | 5.6
CON=C(C1=NOCCO1)c1ccccc1Oc1nccc(OCC2CCCC2)n1 [Example 58] | 3.4
CON=C(C1=NOCCO1)c1ccccc1Oc1nccc(OC(C)C(F)(F)F)n1 (stereo not drawn) [Example 4] | 2.9

Continued, values first:

chromatographic logP | SMILES
2.9 | CON=C(C1=NOCCO1)c1ccccc1Oc1nccc(OCc2ccccc2)n1 [Example 12]
3.3 | CON=C(C1=NOCCO1)c1ccccc1Oc1nccc(OCC2(C)CC2(Cl)Cl)n1 (stereo not drawn) [Example 172]
4.1 | CON=C(C1=NOCCO1)c1ccccc1Oc1nccc(OCCCCCc2ccccc2)n1 [Example 159]
2 | CON=C(C1=NOCCO1)c1ccccc1Oc1nccc(OCCF)n1 [Example 38]
2.1 | C#CCOc1ccnc(Oc2ccccc2C(=NOC)C2=NOCCO2)n1 [Example 160]
2.7 | C/C=C\COc1ccnc(Oc2ccccc2C(=NOC)C2=NOCCO2)n1 [Example 166]
3.3 | CON=C(C1=NOCCO1)c1ccccc1Oc1nccc(OCC=Cc2ccccc2)n1 [Example 161]
3.7 | CON=C(C1=NOCCO1)c1ccccc1Oc1nccc(OCc2ccc(C)c(Cl)c2)n1 [Example 86]
3.5 | CON=C(C1=NOCCO1)c1ccccc1Oc1nccc(OCCc2ccc(Cl)cc2)n1 [Example 26]
2.4 | C=CCOc1ccnc(Oc2ccccc2C(=NOC)C2=NOCCO2)n1 [Example 48]
3.3 | CCCCCOc1ccnc(Oc2ccccc2C(=NOC)C2=NOCCO2)n1 [Example 14]
2.5 | CON=C(C1=NOCCO1)c1ccccc1Oc1nccc(OC(C)C)n1 [Example 7]
2.7 | C=C(Br)COc1ccnc(Oc2ccccc2C(=NOC)C2=NOCCO2)n1 [Example 169]
2.8 | CON=C(C1=NOCCO1)c1ccccc1Oc1nccc(OCc2ccc(OC)cc2)n1 [Example 156]
3.1 | CON=C(C1=NOCCO1)c1ccccc1Oc1nccc(OC(C)c2ccccc2)n1 (stereo not drawn) [Example 21]
2.9 | CON=C(C1=NOCCO1)c1ccccc1Oc1nccc(OCc2ccccc2F)n1 [Example 15]

chromatographic logP | SMILES
3.4 | CON=C(C1=NOCCO1)c1ccccc1Oc1nccc(OC(C)c2ccccc2Cl)n1 (stereo not drawn) [Example 24]
3.4 | CON=C(C1=NOCCO1)c1ccccc1Oc1nccc(OCCCc2ccccc2)n1 [Example 101]
3.2 | CON=C(C1=NOCCO1)c1ccccc1Oc1nccc(OCc2ccc(C)cc2)n1 [Example 16]
3 | CCCCOc1ccnc(Oc2ccccc2C(=NOC)C2=NOCCO2)n1 [Example 9]
3 | CON=C(C1=NOCCO1)c1ccccc1Oc1nccc(OCc2cccc(F)c2)n1 [Example 19]
3.6 | CON=C(C1=NOCCO1)c1ccccc1Oc1nccc(OCCc2ccccc2C(F)(F)F)n1 [Example 20]
2.1 | CON=C(C1=NOCCO1)c1ccccc1Oc1nccc(OCc2ccc(SC)cc2)n1 [Example 168]
3.2 | C/C=C/C=C/COc1ccnc(Oc2ccccc2C(=NOC)C2=NOCCO2)n1 [Example 165]
3.2 | CON=C(C1=NOCCO1)c1ccccc1Oc1nccc(OCCc2ccccc2F)n1 [Example 17]
3 | CON=C(C1=NOCCO1)c1ccccc1Oc1nccc(OCCc2ccc(OC)cc2)n1 [Example 98]
3.3 | CON=C(C1=NOCCO1)c1ccccc1Oc1nccc(OCc2ccc(Cl)cc2)n1 [Example 22]
2.7 | CON=C(C1=NOCCO1)c1ccccc1Oc1nccc(OCC(Cl)Cl)n1 [Example 10]
4.2 | CCCCCCCOc1ccnc(Oc2ccccc2C(=NOC)C2=NOCCO2)n1 [Example 18]
2.5 | CON=C(C1=NOCCO1)c1ccccc1Oc1nccc(OCC2CC2)n1 [Example 59]
2.9 | CCC(C)Oc1ccnc(Oc2ccccc2C(=NOC)C2=NOCCO2)n1 (stereo not drawn) [Example 29]
3.3 | CON=C(C1=NOCCO1)c1ccccc1Oc1nccc(OCCc2ccccc2)n1 [Example 25]

Tested on: Plasmopara viticola
Test: Example D: Plasmopara test (grapevine)/protective
Format: in vivo
Conditions: Plasmopara viticola, 144 h, protective, 6 days after inoculation, vs untreated control, read-out: Efficacy in %
Protocol: Plasmopara test (grapevine)/protective Solvent: 47 parts by weight of acetone Emulsifier: 3 parts by weight of alkylaryl polyglycol ether To produce a suitable preparation of active compound, 1 part by weight of active compound is mixed with the stated amount of solvent and emulsifier, and the concentrate is diluted with water to the desired concentration. To test for protective activity, young plants are sprayed with the preparation of active compound at the stated application rate. […]

SMILES | pest or weed control at 100 g/ha [%]
CON=C(C1=NOCCO1)c1ccccc1Oc1nccc(OCc2ccccc2)n1 [Example 12] | ≤ 100
CCCCCOc1ccnc(Oc2ccccc2C(=NOC)C2=NOCCO2)n1 [Example 14] | ≤ 100
CON=C(C1=NOCCO1)c1ccccc1Oc1nccc(OC(C)C)n1 [Example 7] | ≤ 100
CON=C(C1=NOCCO1)c1ccccc1Oc1nccc(OC(CF)CF)n1 [Example 1, (5,6-dihydro-[1,4,2]dioxazin-3-yl)-{2-[4-(2-fluoro-1-fluoromethyl-ethoxy)-pyrimidin-2-yloxy]-phenyl}-methanone O-methyl oxime] | ≤ 100
CCCCOc1ccnc(Oc2ccccc2C(=NOC)C2=NOCCO2)n1 [Example 9] | ≤ 100
CON=C(C1=NOCCO1)c1ccccc1Oc1nccc(OCC(Cl)Cl)n1 [Example 10] | ≤ 100

Same assay, conditions: protective, 100 g/ha, 6 days after inoculation, vs untreated control

SMILES | Efficacy in % [%]
CON=C(C1=NOCCO1)c1ccccc1Oc1nccc(OCc2ccccc2)n1 [drawing 38] | 100
CCCCCCOc1ccnc(Oc2ccccc2C(=NOC)C2=NOCCO2)n1 [drawing 39] | 100
CCCCCOc1ccnc(Oc2ccccc2C(=NOC)C2=NOCCO2)n1 [drawing 40] | 99
CON=C(C1=NOCCO1)c1ccccc1Oc1nccc(OCC(Br)(Br)Br)n1 [drawing 37] | 100
